The text below walks through data of patent US11890315B2, “Stable ascorbic acid compositions and methods of using same” (RENOVION, INC., priority 2017, dated 2024).

Data set [1] is described as follows: Stability: oxidized glutathione and reduced ascorbic acid after 4 weeks of storage at 5° C. Particulars: reduced ascorbic acid maintained after 4 weeks at 5° C.; pH and atmosphere per formulation. It is filed as physicochemical. The text has this:
Oxidized glutathione is associated with the generation of protein-carbonyls via glutathionlyation, which occurs when oxidized glutathione dissociates and attaches to proteins. […] Additionally, when ascorbic acid is oxidized into dehydroascorbate (DHA), DHA can break down and result in the formation of protein adducts in process called ascorbylation (Simpson et al., Biochim biophys Acta 2000; 1501:12-24). […] Specifically, nitrogen-sparged samples were mixed under anaerobic conditions sparged with nitrogen, and the samples were packaged using nitrogen bubbling. Ambient samples were mixed under room air conditions and were not bubbled with nitrogen. The formulations were stored at 5° C. for 4 weeks, and the percent of oxidized glutathione (GSSG) and ascorbic acid (ASC) was measured for each sample according to standard techniques.

Data set [2] can be described thus: Storage stability about 72 hours at 2-8° C. It is filed as physicochemical. To be noted: −20° C., 5° C., ambient; data not shown. The procedure: The effects of storage on ascorbic acid compositions including varying amounts of buffer with a consistent glutathione concentration were tested. […] At testing, Formulations 1-9 were evaluated to determine ascorbic acid and reduced and oxidized glutathione concentrations. A standard RP-HPLC method for these analytes was used. The method was validated including specificity, accuracy, repeatability, LOQ, mini linearity, in-vial NPLC sample stability and stability-indicating check with informal forced degradation samples. The pH of each formulation was determined using a pH probe place in a sample of each solution. Results are shown in FIG. 15. ascorbic (ACS) alone was unstable under the conditions tested (−20° C., 5° C., ambient) (data not shown).

The test system of a further data set is Pa BAA-47 (PAO1). In words: In vitro MIC against bacterial isolates. It is filed as cell-based, Pseudomonas aeruginosa. To be noted: Anaerobic (+nitrate); 12 hrs. The procedure:
(§1) The MIC for laboratory clinical isolate Pseudomonas aeruginosa (Schroeter) Migula (ATCC BAA-47 (PAO1)) was also tested. The MICs were determined under anaerobic conditions on media supplemented with nitrate, under aerobic conditions supplemented with nitrate, or under ambient conditions.
(§2) The clinical isolates were inoculated in duplicate on agar plates overnight under anaerobic conditions at 36° C.±1.0° C. in a 96-well plate. Laboratory isolates of Burkholderia cepacia were also grown in duplicate overnight under aerobic conditions at 36° C.±1.0° C. in a 96-well plate. […] Ten dilutions for each test solution were examined: 50%, 25%, 12.5%, 6.25%, 3.13%, 1.57%, 0.78%, 0.39%, 0.2%, and 0.1%. The colony isolates were incubated for 12 hours or 24 hours at 36° C.±1.0° C. under anaerobic conditions in media comprising Luria Agar/Broth and nitrate with one of the three test solutions. […] MICs were determined via visual inspection and OD620.

The next data set concerns Pa UAB-NM-1. Put plainly: In vitro MIC against bacterial isolates. Particulars: Anaerobic (+nitrate); 12 hrs. It is filed as cell-based, Pseudomonas aeruginosa. On the procedure: as §1, §2
The test system of the next data set is Pa UAB-NM-5. In words: In vitro MIC against bacterial isolates. It is filed as cell-based, Pseudomonas aeruginosa. Particulars: Anaerobic (+nitrate); 12 hrs. The procedure:
as §1, §2

For the next data set, the system named is Pa UAB-M-2. Put plainly: In vitro MIC against bacterial isolates. It is filed as cell-based, Pseudomonas aeruginosa. To be noted: Anaerobic (+nitrate); 12 hrs. On the procedure: as §1, §2
A further data set has as its system Pa UAB-NM-3. In words: In vitro MIC against bacterial isolates. To be noted: Anaerobic (+nitrate); 12 hrs. It is filed as cell-based, Pseudomonas aeruginosa. The procedure: as §1, §2
The next data set concerns MRSA UAB-3. Put plainly: In vitro MIC against bacterial isolates. It is filed as cell-based, Methicillin-resistant Staphylococcus aureus. Particulars: Anaerobic (+nitrate); 12 hrs. The procedure:
as §1, §2

For the next data set, the system named is MRSA UAB-1. In words: In vitro MIC against bacterial isolates. It is filed as cell-based, Methicillin-resistant Staphylococcus aureus. Particulars: Anaerobic (+nitrate); 12 hrs. The procedure: as §1, §2
Data set [3] concerns dF508−/− primary human bronchial epithelial cells. Put plainly: Mucociliary transport rate, ASL and CBF by micro-optical coherence tomography (uOCT). It is filed as cell-based. To be noted: isolated components vs PBS control; FIG. 2.
Source text: Briefly, primary human bronchial epithelial cells were isolated from the airways of patients with cystic fibrosis and were terminally differentiated. All cells isolated from cystic fibrosis patients were represented by the dF508−/− genotype. […] Micro-optical coherence tomography (uOCT) was used to assess the mucociliary transport rate according to methods described in Liu, L., et al., PLoS One.
As described above in Example 2, primary human bronchial epithelial cells were isolated from the airways of patients with cystic fibrosis, and uOCT was used to assess the mucociliary transport rate according to methods described in Liu, L., et al., PLoS One.
MCT rate was assessed in a mucociliary clearance assay according to the methods in Example 3 above.

Consider `O=C1O[C@H]([C@@H](O)CO)C(O)=C1O` [Ascorbic Acid Only, ascorbic acid], for which the “% ASC” value in data set [1] came to 77.88%. The stability entry in [2] is given as “unstable”.

In the case of `O=C([O-])O.[Na+]` [HCO3, sodium bicarbonate], the MIC against Pa BAA-47 (PAO1) turned out to be 12.5%; in the data set on Pa UAB-NM-1, 12.5%; in the data set on Pa UAB-NM-5, 12.5%; in the data set on Pa UAB-M-2, 12.5%; in the data set with Pa UAB-NM-3, 12.5%; in the data set with MRSA UAB-3, 25%. This compound registered an MIC with MRSA UAB-1 of 25%. Also, the mucociliary transport rate entry in [3] is on record as “did not alter the mucociliary transport rate”.

As to `N[C@@H](CCC(=O)N[C@@H](CS)C(=O)NCC(=O)O)C(=O)O` [glutathione, Glutathione], the mucociliary transport rate entry in [3] is reported as “did not alter the mucociliary transport rate”.
